Measured values as given in US9840508B2, “N-acyl-(3-substituted)-(8-methyl)-5,6-dihydro-[1,2,4]triazolo[4,3-a] pyrazines as selective NK-3 receptor antagonists, pharmaceutical composition, methods for use in NK-3 receptor-mediated disorders” (EUROSCREEN SA, priority 2013, dated 2017).
Where two headings read alike, the source gives them in different places.

Assays:
human NK-2 receptor = human NK-2 receptor (Homo sapiens (Human), UniProt P21452); experiment: Selectivity binding assay, human NK-2 ([125I]-Neurokinin A); details: CHO cell membranes; 0.1 nM [125I]-Neurokinin A; read-out: hNK-2 (Ki)
Chain of human NK-2 receptor (P21452 whole entry): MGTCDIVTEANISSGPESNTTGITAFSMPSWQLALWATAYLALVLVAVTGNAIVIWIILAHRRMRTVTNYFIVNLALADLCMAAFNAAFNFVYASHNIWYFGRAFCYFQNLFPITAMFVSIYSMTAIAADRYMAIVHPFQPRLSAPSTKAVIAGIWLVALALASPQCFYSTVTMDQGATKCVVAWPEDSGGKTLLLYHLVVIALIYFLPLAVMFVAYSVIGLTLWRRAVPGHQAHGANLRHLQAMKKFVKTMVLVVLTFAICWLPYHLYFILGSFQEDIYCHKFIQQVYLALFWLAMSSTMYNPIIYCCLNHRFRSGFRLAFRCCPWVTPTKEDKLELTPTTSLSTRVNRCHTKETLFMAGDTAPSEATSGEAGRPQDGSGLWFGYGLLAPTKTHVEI
Protocol: (§1) Selectivity of the compounds of the invention was determined over the other human NK receptors, namely NK-1 and NK-2 receptors.
The affinity of compounds of the invention for the NK-2 receptor was evaluated in CHO recombinant cells which express the human NK-2 receptor. Membrane suspensions were prepared from these cells. The following radioligand [^125I]-Neurokinin A (PerkinElmer Cat#NEX252) was used in this assay. Binding assays were performed in a 25 mM HEPES/1 mM CaCl2/5 mM MgCl2/0.5% BSA/10 μg/ml saponin, at pH 7.4. Binding assays consisted of 25 μl of membrane suspension (approximately 3.75 μg of protein/well in a 96 well plate), 50 μl of compound or reference ligand (Neurokinin A) at increasing concentrations (diluted in assay buffer) and 0.1 nM [^125I]-Neurokinin A. The plate was incubated 60 min at 25° C. in a water bath and then filtered over GF/C filters (Perkin Elmer, 6005174, presoaked in assay buffer without saponine for 2 h at room temperature) with a Filtration unit (Perkin Elmer). The radioactivity retained on the filters was measured by using the TopCount-NXT reader (Packard). Competition curves were obtained for compounds of the invention and the concentrations of compounds which displaced 50% of bound radioligand (IC50) were determined and then apparent inhibition constant Ki values were calculated by the following equation: Ki=IC50/(1+[L]/KD) where [L] is the concentration of free radioligand and KD is its dissociation constant at the receptor, derived from saturation binding experiments (Cheng and Prusoff, 1973).

human NK-3 receptor [1] = biological target: T1, human NK-3 receptor (Homo sapiens (Human), UniProt P29371); experiment: 3H-SB222200 binding competition assay with human NK-3 receptor
T1 sequence (P29371 whole entry): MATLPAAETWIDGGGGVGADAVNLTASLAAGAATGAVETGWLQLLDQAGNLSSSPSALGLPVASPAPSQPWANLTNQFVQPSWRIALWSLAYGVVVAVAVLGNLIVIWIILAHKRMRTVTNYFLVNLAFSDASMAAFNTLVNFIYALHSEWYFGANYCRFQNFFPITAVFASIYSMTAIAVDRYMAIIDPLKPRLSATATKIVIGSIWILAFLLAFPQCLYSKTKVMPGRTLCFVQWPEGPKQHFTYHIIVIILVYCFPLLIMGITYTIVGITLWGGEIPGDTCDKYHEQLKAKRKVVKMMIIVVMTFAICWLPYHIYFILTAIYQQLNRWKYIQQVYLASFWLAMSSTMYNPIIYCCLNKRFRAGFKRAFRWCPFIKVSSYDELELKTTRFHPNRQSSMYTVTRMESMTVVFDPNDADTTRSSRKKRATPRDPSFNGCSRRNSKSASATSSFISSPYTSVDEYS
Protocol: The affinity of compounds of the invention for the human NK-3 receptor was determined by measuring the ability of compounds of the invention to competitively and reversibly displace a well-characterized NK-3 radioligand in a concentration-dependent manner.
^3H-SB222200 Binding Competition Assay with Human NK-3 Receptor
The ability of compounds of the invention to inhibit the binding of the NK-3 receptor selective antagonist ^3H-SB222200 was assessed by an in vitro radioligand binding assay. Membranes were prepared from Chinese hamster ovary recombinant cells stably expressing the human NK-3 receptor. The membranes were incubated with 5 nM ^3H-SB222200 (ARC) in a HEPES 25 mM/NaCl 0.1M/CaCl2 1 mM/MgCl2 5 mM/BSA 0.5%/Saponin 10 μg/ml buffer at pH 7.4 and various concentrations of compounds of the invention. The amount of ^3H-SB222200 bound to the receptor was determined after filtration by the quantification of membrane associated radioactivity using the TopCount-NXT reader (Packard).

human NK-3 receptor [2] = biological target: T1, human NK-3 receptor; experiment: Aequorin functional assay with human NK-3 receptor (antagonist testing); format: cell-based; details: CHO cells expressing human NK-3 receptor; agonist NKA at EC80 (3 nM); read-out: Functional assay: Aequorin assay with human NK-3 receptor hNK-3 - AEQ (antagonist IC50)
Protocol: Aequorin Assay with Human NK-3 Receptor
Changes in intracellular calcium levels are a recognized indicator of G protein-coupled receptor activity. The efficacy of compounds of the invention to inhibit NKA-mediated NK-3 receptor activation was assessed by an in vitro Aequorin functional assay. Chinese Hamster Ovary recombinant cells expressing the human NK-3 receptor and a construct that encodes the photoproteinapoaequorin were used for this assay. In the presence of the cofactor coelenterazine, apoaequorin emits a measurable luminescence that is proportional to the amount of intracellular (cytoplasmic) free calcium.
The antagonist activity of compounds of the invention is measured following pre-incubation (3 minutes) of the compound (at various concentrations) with the cells, followed by addition of the reference agonist (NKA) at a final concentration equivalent to the EC80 (3 nM) and recording of emitted light (FDSS 6000 Hamamatsu) over the subsequent 90-second period. The intensity of the emitted light is integrated using the reader software. Compound antagonist activity is measured based on the concentration-dependent inhibition of the luminescence response to the addition of Neurokinin A.
The IC50 values shown in Table 2 indicate that compounds of the invention are potent NK-3 antagonist compounds.

plasma protein = experiment: Determination of plasma protein binding (rapid equilibrium dialysis); format: in vitro ADME; details: 4 hours at 37° C.
Description: Determination of Plasma Protein Binding
The pharmacokinetic and pharmacodynamic properties of chemicals/drugs are largely a function of the reversible binding of chemicals to plasma or serum proteins. Generally, only the unbound or “free fraction” of a drug is available for diffusion or transport across cell membranes, and for interaction with a pharmacological/toxicological target. Consequently, the extent of the plasma protein binding (PPB) of a compound influences its action as well as its distribution and elimination.
The determination of plasma protein binding (PPB) of a compound is enabled by equilibrium dialysis, an accepted and standard method for reliable estimation of the non-bound drug fraction in plasma. RED (Rapid Equilibrium Dialysis) device insert is made of two side-by-side chambers separated by an O-ring-sealed vertical cylinder of dialysis membrane (MWCO˜8,000). Plasma containing drug (at 5 μM or blood concentrations otherwise corresponding to efficacious doses, if known) is added to one chamber while buffer is added to the second. After 4 hours incubation at 37° C. under shaking, an aliquot is removed from each chamber and analyzed by a LC-MS/MS procedure enables the determination of both free and bound drug.
The percentages provided in Table 4 represent for the compounds of the invention the bound drug fraction to the plasma protein. The “free fraction” may be calculated as 100%−% rPPB (i.e. the complementary percentage of that disclosed in Table 4, corresponding to the drug concentration that is unbound and therefore available to engage biological target and elicit pharmacological activity).

human NK-1 receptor = human NK-1 receptor (Homo sapiens (Human), UniProt P25103); experiment: Selectivity binding assay, human NK-1 ([3H] substance P); details: CHO cell membranes; 2 nM [3H] substance P; read-out: hNK-1 (Ki)
Chain of human NK-1 receptor (P25103 whole entry): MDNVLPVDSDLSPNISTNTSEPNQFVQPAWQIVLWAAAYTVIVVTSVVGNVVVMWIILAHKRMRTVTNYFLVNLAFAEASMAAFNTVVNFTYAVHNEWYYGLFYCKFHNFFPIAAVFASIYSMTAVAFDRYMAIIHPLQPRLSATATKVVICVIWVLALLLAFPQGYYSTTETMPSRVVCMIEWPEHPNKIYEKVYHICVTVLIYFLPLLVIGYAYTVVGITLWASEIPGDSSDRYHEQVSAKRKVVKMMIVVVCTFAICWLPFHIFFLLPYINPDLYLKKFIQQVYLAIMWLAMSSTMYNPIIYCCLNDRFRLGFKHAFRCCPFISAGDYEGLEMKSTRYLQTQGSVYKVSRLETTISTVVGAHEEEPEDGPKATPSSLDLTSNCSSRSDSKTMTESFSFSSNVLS
Protocol: as §1
The affinity of compounds of the invention for the NK-1 receptor was evaluated in CHO recombinant cells which express the human NK-1 receptor. Membrane suspensions were prepared from these cells. The following radioligand: [^3H] substance P (PerkinElmer Cat#NET111520) was used in this assay. Binding assays were performed in a 50 mM Tris/5 mM MnCl2/150 mM NaCl/0.1% BSA at pH 7.4. Binding assays consisted of 25 μl of membrane suspension (approximately 5 μg of protein/well in a 96 well plate), 50 μl of compound or reference ligand (Substance P) at increasing concentrations (diluted in assay buffer) and 2 nM [^3H] substance P. The plate was incubated 60 min at 25° C. in a water bath and then filtered over GF/C filters (Perkin Elmer, 6005174, presoaked in 0.5% PEI for 2 h at room temperature) with a Filtration unit (Perkin Elmer). The radioactivity retained on the filters was measured by using the TopCount-NXT reader (Packard). Competition curves were obtained for compounds of the invention and the concentrations of compounds which displaced 50% of bound radioligand (IC50) were determined and then apparent inhibition constant Ki values were calculated by the following equation: Ki=IC50/(1+[L]/KD) where [L] is the concentration of free radioligand and KD is its dissociation constant at the receptor, derived from saturation binding experiments (Cheng and Prusoff, 1973).

[3] = CHO cell membranes, 5 nM 3H-SB222200, Table 2, read-out: Competitive binding assay with human NK-3 receptor hNK-3 (Ki)
[4] = Table 3 (selectivity table), read-out: hNK-3 (Ki)

Ki (human NK-2 receptor) [nM]	Ki (human NK-3 receptor [1]; [3]) [nM]	Ki (human NK-3 receptor [1]; [4]) [nM]	IC50 (human NK-3 receptor [2]) [nM]	Exposure (% rPPB), bound drug fraction to the plasma protein (plasma protein) [%]	Ki (human NK-1 receptor) [nM]	Compound
> 30000	100	100	160	17	> 30000	Cc1nc(-c2nnc3n2CCN(C(=O)c2ccc(F)cc2)[C@@H]3C)cs1 [Compound 2, (R)-(4-fluorophenyl)(8-methyl-3-(2-methylthiazol-4-yl)-5,6-dihydro-[1,2,4]triazolo[4,3-a]pyrazin-7(8H)-yl)methanone]
30000	52	52	72	30	> 30000	Cc1ccc(-c2nnc3n2CCN(C(=O)c2cc(F)c(F)c(F)c2F)[C@@H]3C)o1 [Compound 4, (R)-(8-methyl-3-(5-methylfuran-2-yl)-5,6-dihydro-[1,2,4]triazolo[4,3-a]pyrazin-7(8H)-yl)(2,3,4,5-tetrafluorophenyl)methanone]
31000	42	42	52	27	> 30000	Cc1ccc(-c2nnc3n2CCN(C(=O)c2ccc(F)c(F)c2)[C@@H]3C)o1 [Compound 5, (R)-(3,4-difluorophenyl)(8-methyl-3-(5-methylfuran-2-yl)-5,6-dihydro-[1,2,4]triazolo[4,3-a]pyrazin-7(8H)-yl)methanone]
> 30000	74	74	99	37	> 30000	Cc1ccc(-c2nnc3n2CCN(C(=O)c2ccc(F)c(F)c2F)[C@@H]3C)o1 [Compound 6, (R)-(8-methyl-3-(5-methylfuran-2-yl)-5,6-dihydro-[1,2,4]triazolo[4,3-a]pyrazin-7(8H)-yl)(2,3,4-trifluorophenyl)methanone]
21000	33	33	57	26	27000	Cc1ccc(-c2nnc3n2CCN(C(=O)c2cc(F)c(F)c(F)c2)[C@@H]3C)o1 [Compound 7, (R)-(8-methyl-3-(5-methylfuran-2-yl)-5,6-dihydro-[1,2,4]triazolo[4,3-a]pyrazin-7(8H)-yl)(3,4,5-trifluorophenyl)methanone]
9100	44	44	62	47	18000	Cc1ccc(-c2nnc3n2CCN(C(=O)c2ccc(F)c(Cl)c2)[C@@H]3C)o1 [Compound 8, (R)-(3-chloro-4-fluorophenyl)(8-methyl-3-(5-methylfuran-2-yl)-5,6-dihydro-[1,2,4]triazolo[4,3-a]pyrazin-7(8H)-yl)methanone]
14000	38	38	53	68	13000	Cc1ccc(-c2nnc3n2CCN(C(=O)c2ccc(Cl)c(F)c2)[C@@H]3C)o1 [Compound 9, (R)-(4-chloro-3-fluorophenyl)(8-methyl-3-(5-methylfuran-2-yl)-5,6-dihydro-[1,2,4]triazolo[4,3-a]pyrazin-7(8H)-yl)methanone]
23000	36	36	74	56	25000	Cc1ccc(-c2nnc3n2CCN(C(=O)c2ccc(Cl)cc2)[C@@H]3C)o1 [Compound 10, (R)-(4-chlorophenyl)(8-methyl-3-(5-methylfuran-2-yl)-5,6-dihydro-[1,2,4]triazolo[4,3-a]pyrazin-7(8H)-yl)methanone]
4200	27	27	36	76	6900	Cc1ccc(-c2nnc3n2CCN(C(=O)c2ccc(Cl)c(Cl)c2)[C@@H]3C)o1 [Compound 11, (R)-(3,4-dichlorophenyl)(8-methyl-3-(5-methylfuran-2-yl)-5,6-dihydro-[1,2,4]triazolo[4,3-a]pyrazin-7(8H)-yl)methanone]
4700	29	29	33	67	19000	C[C@@H]1c2nnc(-c3csc(C(F)(F)F)n3)n2CCN1C(=O)c1cc(F)c(F)c(F)c1F [Compound 12, (R)-(8-methyl-3-(2-(trifluoromethyl)thiazol-4-yl)-5,6-dihydro-[1,2,4]triazolo[4,3-a]pyrazin-7(8H)-yl)(2,3,4,5-tetrafluorophenyl)methanone]
7000	20	20	26	51	21000	C[C@@H]1c2nnc(-c3csc(C(F)(F)F)n3)n2CCN1C(=O)c1ccc(F)c(F)c1 [Compound 13, (R)-(3,4-difluorophenyl)(8-methyl-3-(2-(trifluoromethyl)thiazol-4-yl)-5,6-dihydro-[1,2,4]triazolo[4,3-a]pyrazin-7(8H)-yl)methanone]
